According to patent publication US20230085307A1, “PYRIDAZINONE COMPOUND AND HERBICIDE” (NISSAN CHEMICAL CORPORATION, priority 2019, published 2023):

Assays:
Japanese bulrush [1] = test: Test Example 1: herbicidal activity, application before weed generation under submerged conditions (Table 16, symbol B); format: in vivo, Japanese bulrush (Schoenoplectus juncoides); details: 320 g/ha applied herbicide
Outline: (§1)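 Submerged Wagner pots (alluvial soil, 4 cm water) sown with weed seeds and planted with 2.5-leaf rice seedlings; emulsifiable concentrate diluted in water applied to water surface on sowing day. Held in greenhouse at 25-30 °C; injury scored 0-5 by herbicidal rate after three weeks.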

barnyard grass [2] = test: Test Example 3: herbicidal effect by foliage application, Wagner pot (Table 18, symbol H); format: in vivo, barnyard grass (Echinochloa crus-galli); details: amount of applied herbicide 320 g/ha
Outline: (§2)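 Plants were sown in alluvial soil held under 0.1–0.5 cm standing water and grown 14 days in a greenhouse at 25–30 °C. An emulsifiable formulation, water-diluted to the set dose, was then sprayed onto the foliage, and effects were scored three weeks later using previously defined criteria.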

wild oat = test: Test Example 4: herbicidal effect by soil treatment (Table 19, symbol I); format: in vivo, wild oat (Avena fatua); details: amount of applied herbicide 320 g/ha
Outline: (§3)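 Pre-emergence style soil spray: seeds under ~1.5 cm sterilized diluvial soil received a uniform coat of emulsion diluted to the predetermined herbicide amount. Greenhouse 25–30° C; readout at week three on previously defined criteria.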

southern crabgrass = test: Test Example 4: herbicidal effect by soil treatment (Table 19, symbol F); format: in vivo, southern crabgrass (Digitaria ciliaris); details: amount of applied herbicide 320 g/ha
Outline: as §3

Japanese bulrush [3] = test: Test Example 2: herbicidal activity, application during weed generation under submerged conditions (Table 17, symbol B); format: in vivo, Japanese bulrush (Schoenoplectus juncoides); details: AAH 320 g/ha; application during weed generation, submerged conditions
Outline: (§4)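 Wagner pot, alluvial soil, 4 cm flood; mixed sowing of all species; greenhouse 25° C.–30° C. Emulsifiable formulation, water-diluted to predetermined dose, applied to paddy water at 1–2 leaf stage. Effect rated at 3 wk using the earlier test's scoring criteria.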

lambsquarters = test: Test Example 4: herbicidal effect by soil treatment (Table 19, symbol O); format: in vivo, lambsquarters (Chenopodium album); details: amount of applied herbicide 320 g/ha
Outline: as §3

oval-leafed pondweed [4] = test: Test Example 1: herbicidal activity, application before weed generation under submerged conditions (Table 16, symbol C); format: in vivo, oval-leafed pondweed (Monochoria vaginalis); details: 320 g/ha applied herbicide
Outline: as §1

rice flat sedge = test: Test Example 3: herbicidal effect by foliage application, Wagner pot (Table 18, symbol E); format: in vivo, rice flat sedge (Cyperus iria); details: amount of applied herbicide 320 g/ha
Outline: as §2

redroot pigweed = test: Test Example 4: herbicidal effect by soil treatment (Table 19, symbol N); format: in vivo, redroot pigweed (Amaranthus retroflexus); details: amount of applied herbicide 320 g/ha
Outline: as §3

Italian ryegrass = test: Test Example 4: herbicidal effect by soil treatment (Table 19, symbol K); format: in vivo, Italian ryegrass (Lolium multiflorum); details: amount of applied herbicide 320 g/ha
Outline: as §3

green foxtail = test: Test Example 4: herbicidal effect by soil treatment (Table 19, symbol G); format: in vivo, green foxtail (Setaria viridis); details: amount of applied herbicide 320 g/ha
Outline: as §3

windgrass = test: Test Example 4: herbicidal effect by soil treatment (Table 19, symbol L); format: in vivo, windgrass (Apera spica-venti); details: amount of applied herbicide 320 g/ha
Outline: as §3

velvetleaf = test: Test Example 4: herbicidal effect by soil treatment (Table 19, symbol M); format: in vivo, velvetleaf (Abutilon theophrasti); details: amount of applied herbicide 320 g/ha
Outline: as §3

persian speedwell = test: Test Example 4: herbicidal effect by soil treatment (Table 19, symbol R); format: in vivo, Persian speedwell (Veronica persica); details: amount of applied herbicide 320 g/ha
Outline: as §3

barnyard grass [5] = test: Test Example 4: herbicidal effect by soil treatment (Table 19, symbol H); format: in vivo, barnyard grass (Echinochloa crus-galli); details: amount of applied herbicide 320 g/ha
Outline: as §3

Chinese sprangletop = test: Test Example 3: herbicidal effect by foliage application, Wagner pot (Table 18, symbol D); format: in vivo, chinese sprangletop (Leptochloa chinensis); details: amount of applied herbicide 320 g/ha
Outline: as §2

oval-leafed pondweed [6] = test: Test Example 2: herbicidal activity, application during weed generation under submerged conditions (Table 17, symbol C); format: in vivo, oval-leafed pondweed (Monochoria vaginalis); details: AAH 320 g/ha; application during weed generation, submerged conditions
Outline: as §4

blackgrass = test: Test Example 4: herbicidal effect by soil treatment (Table 19, symbol J); format: in vivo, blackgrass (Alopecurus myosuroides); details: amount of applied herbicide 320 g/ha
Outline: as §3

late watergrass [7] = test: Test Example 2: herbicidal activity, application during weed generation under submerged conditions (Table 17, symbol A); format: in vivo, late watergrass (Echinochloa oryzicola); details: AAH 320 g/ha; application during weed generation, submerged conditions
Outline: as §4

chickweed = test: Test Example 4: herbicidal effect by soil treatment (Table 19, symbol P); format: in vivo, common chickweed (Stellaria media); details: amount of applied herbicide 320 g/ha
Outline: as §3

late watergrass [8] = test: Test Example 1: herbicidal activity, application before weed generation under submerged conditions (Table 16, symbol A); format: in vivo, late watergrass (Echinochloa oryzicola); details: 320 g/ha applied herbicide
Outline: as §1

Cc1nn(C)c(=O)c(-c2c(-c3ccc(F)c(Cl)c3)sc3ccc(F)cc23)c1O [2-352]
Herbicidal effect on B: Japanese bulrush (grade 0-5) (Japanese bulrush [1]): 2 (Herbicidal rate of 20% or more and less than 40%)
herbicidal effect on H: barnyard grass (barnyard grass [2]): 5 (Herbicidal rate of 90% or more (almost completely withered))
herbicidal effect, I: wild oat (wild oat): 0 (Herbicidal rate of 5% or less (almost no effect))
herbicidal effect, F: southern crabgrass (southern crabgrass): 2 (Herbicidal rate of 20% or more and less than 40%)
herbicidal effect rating, B: Japanese bulrush (Japanese bulrush [3]): 2 (Herbicidal rate of 20% or more and less than 40%)
herbicidal effect, O: lambsquarters (lambsquarters): 4 (Herbicidal rate of 70% or more and less than 90%)
Herbicidal effect on C: oval-leafed pondweed (grade 0-5) (oval-leafed pondweed [4]): 2 (Herbicidal rate of 20% or more and less than 40%)
herbicidal effect on E: rice flat sedge (rice flat sedge): 5 (Herbicidal rate of 90% or more (almost completely withered))
herbicidal effect, N: redroot pigweed (redroot pigweed): 5 (Herbicidal rate of 90% or more (almost completely withered))
herbicidal effect, K: Italian ryegrass (Italian ryegrass): 4 (Herbicidal rate of 70% or more and less than 90%)
herbicidal effect, G: green foxtail (green foxtail): 4 (Herbicidal rate of 70% or more and less than 90%)
herbicidal effect, L: windgrass (windgrass): 0 (Herbicidal rate of 5% or less (almost no effect))
herbicidal effect, M: velvetleaf (velvetleaf): 3 (Herbicidal rate of 40% or more and less than 70%)
herbicidal effect, R: persian speedwell (persian speedwell): 4 (Herbicidal rate of 70% or more and less than 90%)
herbicidal effect, H: barnyard grass (barnyard grass [5]): 3 (Herbicidal rate of 40% or more and less than 70%)
herbicidal effect on D: Chinese sprangletop (Chinese sprangletop): 5 (Herbicidal rate of 90% or more (almost completely withered))
herbicidal effect rating, C: oval-leafed pondweed (oval-leafed pondweed [6]): 0 (Herbicidal rate of 5% or less (almost no effect))
herbicidal effect, J: blackgrass (blackgrass): 0 (Herbicidal rate of 5% or less (almost no effect))
herbicidal effect rating, A: late watergrass (late watergrass [7]): 0 (Herbicidal rate of 5% or less (almost no effect))
herbicidal effect, P: chickweed (chickweed): 3 (Herbicidal rate of 40% or more and less than 70%)
Herbicidal effect on A: late watergrass (grade 0-5) (late watergrass [8]): 3 (Herbicidal rate of 40% or more and less than 70%)
